Viscosity data for two molecules are collected here from a compilation of properties of binary mixtures (doi:10.1016/j.tca.2014.09.015).

A short description of this data set: xn = mol fraction of the nth substance listed. The note with it: 101 kPa.

Consider `CCOS(=O)(=O)[O-].CC[N+]1(C)CCOCC1` + O, for which the viscosity reads like this: (298.15 K, x2 = 0.2761) 690 mPa·s; (298.15 K, x2 = 0.8745) 7.7 mPa·s; (303.15 K, x2 = 0.5594) 94 mPa·s; (303.15 K, x2 = 0.8745) 6.5 mPa·s; (308.15 K, x2 = 0.5594) 72 mPa·s; (323.15 K, x2 = 0.7786) 8.8 mPa·s. Besides, the viscosity reads like this: (328.15 K, x2 = 0) 780 mPa·s; (328.15 K, x2 = 0.7786) 7.6 mPa·s; (338.15 K, x2 = 0.2761) 86 mPa·s; (343.15 K, x2 = 0.2761) 69 mPa·s.

With `O` + CCOS(=O)(=O)[O-].CC[N+]1(C)CCOCC1, the viscosity runs as follows: (303.15 K, x1 = 1) 0.81 mPa·s; (313.15 K, x1 = 1) 0.68 mPa·s.
